Data published in article PMC6889535, “Validation of Plasmodium falciparum dUTPase as the target of 5′-tritylated deoxyuridine analogues with anti-malarial activity” (Malaria Journal, 2019).

Assays:
[1] = test system: dTTP and dUTP pools in Plasmodium cultures; experiment: Intracellular dTTP and dUTP levels by modified DNA polymerase assay; format: cell-based, Plasmodium falciparum; settings: schizont stage, 20 h of treatment, 1× and 3× the IC50; effect at high concentrations
Protocol: The effect of different dUTPase inhibitors on dUTP and dTTP levels from P. falciparum cells was measured using a modified DNA polymerase assay. The template sequence employed was the oligonucleotide 5′-[…]-3′ and as primer sequence the oligonucleotide 5′-CCGCCTCCACCGCC-3′ was used. Saponin-isolated parasite pellets (5 × 10^8 parasites per sample) were repeatedly washed in PBS and frozen at − 80 °C. Frozen pellets were extracted with 200 μl of cold methanol/water (1:1, v/v) vigorously by vortexing, freeze-thawed twice and centrifuged. Supernatants were collected and pellets were re-extracted with the same volume of methanol/water as previously mentioned and newly centrifuged. The combined supernatants were dried under vacuum. The residues were dissolved in 40 μl either of dUTPase buffer (34 mM Tris–HCl pH 7.8, 5 mM MgCl2) or dUTPase buffer plus 30 ng of HsdUTPase and incubated for 20 min at 37 °C. To stop the reaction, 60 μl of 100% methanol were added and the samples were incubated for 1 h at − 20 °C, followed by centrifugation for 20 min at 16,000×g. The supernatants were again dried under vacuum and the DNA polymerase assay used was modified from that of Horowitz et al.. The DNA polymerase I buffer contained 34 mM Tris–HCl pH 7.8, and 50 mM MgCl2. After incubation with DNA polymerase I, 30 μl of each sample were incubated for 30 min at 4 °C with 470 μl of DNA polymerase I buffer containing 10% (v/v) trichloroacetic acid to precipitate the DNA. The solution was blotted onto a glass microfibre filter GF/C (Whatman) and each filter was washed under vacuum with 30 ml of a solution of 5% (v/v) trichloroacetic acid and 3 ml of ethanol, dried and the radioactivity was counted using a LS 6500 Multi-Purpose Scintillation Counter (Beckman Coulter).
The levels of intracellular dTTP and dUTP were measured using the DNA polymerase based assay in Plasmodium cultures incubated with compounds 3 and 4. Parasites for dUTP and dTTP measurements were obtained from highly synchronized cultures in schizont stage after 20 h of treatment with concentrations of compound that corresponded with 1× and 3× the IC50 concentration.

[2] = target: T1, PfdUTPase (Plasmodium falciparum, UniProt Q8II92); experiment: Inhibition of Plasmodium dUTPase (Ki); format: biochemical; settings: for Ki: average of three independent experiments ± standard errors
T1 construct: made in house
T1 sequence (Q8II92 1-173): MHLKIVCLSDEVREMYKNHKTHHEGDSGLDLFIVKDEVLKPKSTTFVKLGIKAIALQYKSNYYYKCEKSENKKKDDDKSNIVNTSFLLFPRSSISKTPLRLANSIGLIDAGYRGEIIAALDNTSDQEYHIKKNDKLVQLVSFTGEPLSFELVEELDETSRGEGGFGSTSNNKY

[3] = target: T2, HsdUTPase (Homo sapiens, UniProt P33316); experiment: Inhibition of human dUTPase (Ki); format: biochemical; settings: average of three independent experiments ± standard errors
T2 construct: made in house
T2 sequence (P33316 1-164 isoform P33316-2): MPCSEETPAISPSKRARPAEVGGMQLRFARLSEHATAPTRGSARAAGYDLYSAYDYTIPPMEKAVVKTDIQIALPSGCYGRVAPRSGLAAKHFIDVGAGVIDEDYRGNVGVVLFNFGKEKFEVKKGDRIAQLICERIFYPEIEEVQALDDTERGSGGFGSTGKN
Text: Table 1 Ki values for Plasmodium and human dUTPases and IC50s for intraerythrocytic stages of Plasmodium falciparum | column: Ki HsdUTPase

[4] = test system: Plasmodium falciparum lines overexpressing PfdUTPase (PfdUTPase OE); experiment: IC50 shift in P. falciparum line overexpressing PfdUTPase (SYBR green assay); format: cell-based; settings: PfdUTPase overexpressing line vs parental line 3D7
Protocol: (§1) In vitro inhibitory activity against the erythrocytic stages of P. falciparum of overexpressing mutants was determined by using the SYBR green assay and the ^3H-hypoxanthine incorporation assay was used for IC50 determination as previously described. Plasmodium falciparum 3D7 was cultured using standard methods, and synchronized using 5% sorbitol as previously described. Compounds were dissolved in DMSO and added at different concentrations (8–500 ng/ml) to 48 h post-synchronization parasites. […] Chloroquine dissolved in water was used as standard drug. Experiments were carried out at least twice independently and the different concentrations were tested in duplicate. IC50 values were calculated using a four-parameter logistic regression model using data obtained from two or three independent experiments as indicated.
(§2) Subsequently, the IC50 for each cell line with each compound and the fold change relative to the 3D7 IC50 was calculated (Fig. 3a). […] The IC50 for chloroquine as a reference compound was also determined in overexpressing mutants.

[5] = test system: Plasmodium falciparum lines overexpressing human dUTPase (HsdUTPase OE); experiment: IC50 shift in P. falciparum line overexpressing human dUTPase (SYBR green assay); format: cell-based; settings: HsdUTPase overexpressing line vs parental line 3D7
Protocol: as §1, §2

[6] = test system: Plasmodium falciparum 3D7; experiment: In vitro inhibitory activity against erythrocytic stages of P. falciparum (3H-hypoxanthine incorporation assay); format: cell-based; settings: intraerythrocytic stages of Plasmodium falciparum; average of three independent experiments ± standard errors; read-out: IC50 Pf3D7
Protocol: as §1

Compound	dTTP pool [1]	dUTP pool [1]	Activity against the enzyme relative to compound 3 ([2]; PfdUTPase, compared with compound 3)	Ki [2] [nM]	Ki [3] [nM]	Fold change in IC50 relative to the 3D7 IC50 [4]	Fold change in IC50 relative to the 3D7 IC50 [5]	IC50 [6] [nM]
CCOC(=O)c1ccc(NC(=O)NCC(CCn2ccc(=O)[nH]c2=O)CNC(c2ccccc2)(c2ccccc2)c2ccccc2)cc1 (centres unmarked) [Compound 4, Ethyl 4-(3-(4-(2,4-dioxo-3,4-dihydropyrimin-1(2H)-yl)-2-((tritylamino)methyl)butyl)uredio)benzoate]	significant decrease	increase	eightfold less active	610 ± 70	> 100000	4 fold	2.5 fold	150 ± 30
3- N-(4-(carboethoxy)butylurea)-5-tritylamino-2,3-dideoxy-β-D-xylofuranosyluracil [Compound 1]	–	–	–	4730 ± 160	> 100000	–	–	40 ± 10
CCN(CC)CCCC(C)Nc1ccnc2cc(Cl)ccc12 (centres unmarked) [chloroquine, Chloroquine, reference compound]	–	–	–	–	–	No significant effects	No significant effects	–
O=C(Nc1ccc(C(=O)O)cc1)O[C@H]1C[C@H](n2ccc(=O)[nH]c2=O)O[C@@H]1CNC(c1ccccc1)(c1ccccc1)c1ccccc1 [Compound 3, 3’-O-(4-(carboxy)phenylurethane)-5’-N-tritylamino-2’,5’-dideoxyuridine]	significant decrease	increase	–	79 ± 22	> 100000	3.8 fold	2.3 fold	120 ± 50
CCOC(=O)CCCNC(=O)NCC(CCn1ccc(=O)[nH]c1=O)CNC(c1ccccc1)(c1ccccc1)c1ccccc1 (centres unmarked) [Compound 2, Ethyl 4-(3-(4-(2,4-dioxo-3,4-dihydropyrimin-1(2H)-yl)-2-((tritylamino)methyl)butyl)uredio)butanoate]	–	–	–	560 ± 80	12200 ± 6910	–	–	60 ± 10
